# Like-named read-outs stand apart in the source and are kept apart here.
# Assays:
# Type in all cases: cell-based
# A. baumannii ATCC 19606 = test: MIC, broth microdilution; conditions: Acinetobacter baumannii
# Description: (§1) The minimum inhibitory concentration of 3H-imidazo[4,5-C]pyridine pleuromutilin onium salt derivatives against the tested pathogenic microorganisms were determined by broth microdilution method, with valnemulin and retapamulin as positive controls.
# (§2) The experimental strains included resistant Gram-positive bacteria: Methicillin-resistant S. aureus ATCC 33591; Methicillin-resistant S. aureus ATCC 43300; S. aureus ATCC 29213; Methicillin-resistant S. epidermidis ATCC 51625. Resistant Gram-negative bacteria: A. baumannii ATCC 19606; S. enterica ATCC14028; E. coli ATCC 25922; E. coli CMCC 44103. 9 clinically isolated resistant strains: MRSA-171; MRSA-575; MRSA-206; MRSA-222; MRSA-596; VRE-80; MDR-PA-126; MDR-KP-893; CR-AB-882.
# (§3) (1) Preparation of MHB medium: Weigh 18.0 g of MHB medium pre-made powder, add it to 1 L of distilled water, heat and boil until completely dissolved, divide it into conical bottles, sterilize it by high pressure at 121° C. for 15 minutes, and set aside.
# (§4) (2) Cultivate the experimental strain to the logarithmic growth phase: Under sterile conditions, inoculate the experimental strain into fresh MHB medium and culture it in a 37° C. constant temperature and humidity incubator for 16-24 hours. Adjust the bacterial solution concentration to 1.5×10^8 CFU/mL and then dilute it 200 times for later use.
# (§5) (3) Preparation of storage solution: Weigh the sample to be tested, dissolve it in 1% DMSO solution, and prepare a storage solution with a concentration of 2560 μg/mL; weigh the positive control, dissolve it in sterile distilled water, and prepare a storage solution with a concentration of 2560 μg/mL.
# (§6) (4) Preparation of bacterial suspension: Under sterile conditions, the experimental strain cultured to the logarithmic growth phase was calibrated to a 0.5 McFarland unit turbidity standard using MHB medium and then diluted at a ratio of 1:200 to prepare a bacterial suspension with a concentration of 5×10^5 CFU/mL for later use.
# (§7) (5) Determination of MIC by two-fold microdilution method: Take a sterile 96-well plate, add 10 μL of the test compound at a concentration of 2560 μg/mL, and perform serial dilutions by the two-fold dilution method. At the same time, set up a negative control group without drug. Then add 190 μL of diluted bacterial solution to each well, so that the final bacterial solution concentration in each well is 5×10^5 CFU/mL, and incubate in a 37° C. constant temperature and humidity chamber for 24 hours.
# E. coli ATCC 25922 = test: MIC, broth microdilution; conditions: Escherichia coli
# Description: as §1, §2, §3, §4, §5, §6, §7
# E.coli CMCC 44103 = test: MIC, broth microdilution; conditions: Escherichia coli
# Description: as §1, §2, §3, §4, §5, §6, §7
# [1] = test system: Methicillin-resistant S. aureus ATCC 33591; test: MIC, broth microdilution; conditions: Staphylococcus aureus, ATCC 33591 / MRSA, read-out: Minimum inhibitory concentration MRSA^b
# Description: as §1, §2, §3, §4, §5, §6, §7
# [2] = test system: Methicillin-resistant S. aureus ATCC 43300; test: MIC, broth microdilution; conditions: Staphylococcus aureus, ATCC 43300 / MRSA, read-out: Minimum inhibitory concentration MRSA^c
# Description: as §1, §2, §3, §4, §5, §6, §7
# [3] = test system: Methicillin-resistant S. epidermidis ATCC 51625; test: MIC, broth microdilution; conditions: Staphylococcus epidermidis, ATCC 51625 / MRSE, read-out: Minimum inhibitory concentration MRSE^e
# Description: as §1, §2, §3, §4, §5, §6, §7
# S. aureus ATCC 29213 = test: MIC, broth microdilution; conditions: Staphylococcus aureus
# Description: as §1, §2, §3, §4, §5, §6, §7
# S. enterica ATCC14028 = test: MIC, broth microdilution; conditions: Salmonella enterica
# Description: as §1, §2, §3, §4, §5, §6, §7
# [4] = test system: carbapenem-resistant Acinetobacter baumannii-882; test: MIC, clinical isolates; conditions: read-out: Antibacterial activity (MIC) CR-AB^j
# Description: as §1, §2, §3, §4, §5, §6, §7
# [5] = test system: methicillin-resistant Staphylococcus aureus-171; test: MIC, clinical isolates; conditions: MRSA, read-out: Antibacterial activity (MIC) MRSA^b
# Description: as §1, §2, §3, §4, §5, §6, §7
# [6] = test system: methicillin-resistant Staphylococcus aureus-206; test: MIC, clinical isolates; conditions: MRSA, read-out: Antibacterial activity (MIC) MRSA^d
# Description: as §1, §2, §3, §4, §5, §6, §7
# [7] = test system: methicillin-resistant Staphylococcus aureus-222; test: MIC, clinical isolates; conditions: MRSA / MRSE, read-out: Antibacterial activity (MIC) MRSE^e
# Description: as §1, §2, §3, §4, §5, §6, §7
# [8] = test system: methicillin-resistant Staphylococcus aureus-575; test: MIC, clinical isolates; conditions: MRSA, read-out: Antibacterial activity (MIC) MRSA^c
# Description: as §1, §2, §3, §4, §5, §6, §7
# [9] = test system: methicillin-resistant Staphylococcus aureus-596; test: MIC, clinical isolates; conditions: MRSA, read-out: Antibacterial activity (MIC) MRSA^f
# Description: as §1, §2, §3, §4, §5, §6, §7
# [10] = test system: multidrug-resistant Klebsiella pneumoniae-893; test: MIC, clinical isolates; conditions: clinical isolate MDR-KP-893
# Description: as §1, §2, §3, §4, §5, §6, §7
# [11] = test system: multidrug-resistant Pseudomonas aeruginosa-126; test: MIC, clinical isolates; conditions: read-out: Antibacterial activity (MIC) MDR-PA^h
# Description: as §1, §2, §3, §4, §5, §6, §7
# [12] = test system: vancomycin-resistant Enterococcus-80; test: MIC, clinical isolates; conditions: VRE, read-out: Antibacterial activity (MIC) VRE^g
# Description: as §1, §2, §3, §4, §5, §6, §7
# A549 Cells = test: Cytotoxicity, Cell Counting Kit-8; conditions: CCK-8, 24 hours incubation; read-out: CC50 A549 Cells
# Description: (§8) Cell Counting Kit-8 was used to evaluate the cytotoxicity of the compounds.
# (§9) (4) Cell culture: HepG2, HEK293 and A549 cells were evenly dispersed in culture medium, seeded into 96-well plates, and cultured under appropriate environmental conditions to keep the cells completely attached to the well walls.
# (§10) (5) Compound treatment: Add different concentrations of compounds I-8 and I-9 to each well (the concentrations are 0.78, 1.56, 3.13, 6.25, 12.5, 25, 50 and 100 μM, respectively, and perform 6 parallel experiments). Set up a blank control group and a normal control group. After incubation for 24 hours, observe the cell condition, which observed under a microscope.
# (§11) (6) CCK-8 solution treatment: Add CCK-8 solution to each well and incubate for 4 hours to allow it to react with the cells.
# (§12) (7) Absorbance determination: Use a full-wavelength scanning multifunctional reader, place the 96-well plate in the instrument, oscillate to mix to make the color evenly distributed, and measure the absorbance value at 490 nm.
# (§13) (8) Data analysis: Based on the measured absorbance values, the cell survival rate at different concentrations can be calculated. The median cytotoxic concentration was used to evaluate the cytotoxicity of the compound to A549, HEK293 and HepG2 cells.
# HEK293 Cells = test: Cytotoxicity, Cell Counting Kit-8; conditions: CCK-8, 24 hours incubation; read-out: CC50 HEK293 Cells
# Description: as §8, §9, §10, §11, §12, §13
# HepG2 Cells = test: Cytotoxicity, Cell Counting Kit-8; conditions: CCK-8, 24 hours incubation; read-out: CC50 HepG2 Cells
# Description: as §8, §9, §10, §11, §12, §13
# [13] = ATCC19606, A. baumannii ATCC 19606, read-out: Minimum inhibitory concentration A.b.^f
# [14] = ATCC25922, E. coli ATCC 25922, read-out: Minimum inhibitory concentration E.c.^h
# [15] = CMCC44103, E.coli CMCC 44103, read-out: Minimum inhibitory concentration E.c.^i
# [16] = Methicillin-resistant S. aureus ATCC 33591
# [17] = Methicillin-resistant S. aureus ATCC 43300
# [18] = Methicillin-resistant S. epidermidis ATCC 51625
# [19] = ATCC29213, S. aureus ATCC 29213, read-out: Minimum inhibitory concentration S.a.^d
# [20] = S. enterica ATCC14028, read-out: Minimum inhibitory concentration S.e.^g
SMILES,MIC (A. baumannii ATCC 19606; [13]),MIC (E. coli ATCC 25922; [14]),MIC (E.coli CMCC 44103; [15]),"MIC [1, 16]","MIC [2, 17]","MIC [3, 18]",MIC (S. aureus ATCC 29213; [19]),MIC (S. enterica ATCC14028; [20]),also measured
"C=C[C@]1(C)C[C@@H](OC(=O)CSc2nc3cc[n+](Cc4ccc(C#N)cc4)cc3[nH]2)[C@]2(C)[C@H](C)CC[C@]3(CCC(=O)[C@H]32)[C@@H](C)[C@@H]1O [Compound h, 5-(4-cyanobenzyl)-2-((2-(((3aR,4R,5R,7S,8S,9R,9aS,12R)-8-hydroxy-4,7,9,12-tetramethyl-3-oxo-7-vinyldecahydro-4,9a-propancyclopenta[8]cyclo-5-yl)oxy)-2-oxoethyl)thio)-3H-imidazo[4,5-C]pyridine-5-ium]",–,–,–,–,–,–,–,–,"MIC (A. baumannii ATCC 19606; ATCC19606, read-out: Minimum inhibitory concentration A.b.^f): 1 µg/mL; MIC (E. coli ATCC 25922; ATCC25922, read-out: Minimum inhibitory concentration E.c.^h): 0.5 µg/mL; MIC (E.coli CMCC 44103; CMCC44103, read-out: Minimum inhibitory concentration E.c.^i): 2 µg/mL; MIC [1]: 2 µg/mL; MIC [2]: 0.5 µg/mL; MIC [3]: 0.25 µg/mL; MIC (S. aureus ATCC 29213; ATCC29213, read-out: Minimum inhibitory concentration S.a.^d): 0.5 µg/mL; MIC (S. enterica ATCC14028; ATCC14028, read-out: Minimum inhibitory concentration S.e.^g): 2 µg/mL; MIC [4]: 64 µg/mL; MIC [5]: 16 µg/mL; MIC [6]: 4 µg/mL; MIC [7]: 16 µg/mL; MIC [8]: 32 µg/mL; MIC [9]: 8 µg/mL; Antibacterial activity (MIC) MDR-KP^i [10]: 16 µg/mL; MIC [11]: 32 µg/mL; MIC [12]: 2 µg/mL; CC50 (A549 Cells): > 100 µM; CC50 (HEK293 Cells): > 100 µM; CC50 (HepG2 Cells): 96.3 µM"
"C=C[C@]1(C)C[C@@H](OC(=O)CSc2nc3cc[n+](Cc4cc(C)cc(C)c4)cc3[nH]2)[C@]2(C)[C@H](C)CC[C@]3(CCC(=O)[C@H]32)[C@@H](C)[C@@H]1O [Compound l, 5-(3,5-dimethylbenzyl)-2-((2-(((3aR,4R,5R,7S,8S,9R,9aS,12R)-8-hydroxy-4,7,9,12-tetramethyl-3-oxo-7-vinyldecahydro-4,9a-propancyclopenta[8]cyclo-5-yl)oxy)-2-oxoethyl)thio)-3H-imidazo[4,5-C]pyridine-5-ium]",64 µg/mL,64 µg/mL,64 µg/mL,64 µg/mL,32 µg/mL,64 µg/mL,64 µg/mL,32 µg/mL,–
"C=C[C@]1(C)C[C@@H](OC(=O)CSc2nc3cc[n+](Cc4cc(F)ccc4C#N)cc3[nH]2)[C@]2(C)[C@H](C)CC[C@]3(CCC(=O)[C@H]32)[C@@H](C)[C@@H]1O [Compound m, 5-(2-cyano-5-fluorobenzyl)-2-((2-(((3aR,4R,5R,7S,8S,9R,9aS,12R)-8-hydroxy-4,7,9,12-tetramethyl-3-oxo-7-vinyldecahydro-4,9a-propancyclopenta[8]cyclo-5-yl)oxy)-2-oxoethyl)thio)-3H-imidazo[4,5-C]pyridine-5-ium]",64 µg/mL,64 µg/mL,32 µg/mL,64 µg/mL,32 µg/mL,64 µg/mL,32 µg/mL,32 µg/mL,–
"C=C[C@]1(C)C[C@@H](OC(=O)CSc2nc3cc[n+](Cc4cc(OC)cc(OC)c4)cc3[nH]2)[C@]2(C)[C@H](C)CC[C@]3(CCC(=O)[C@H]32)[C@@H](C)[C@@H]1O [Compound n, 5-(3,5-dimethoxybenzyl)-2-((2-(((3aR,4R,5R,7S,8S,9R,9aS,12R)-8-hydroxy-4,7,9,12-tetramethyl-3-oxo-7-vinyldecahydro-4,9a-propancyclopenta[8]cyclo-5-yl)oxy)-2-oxoethyl)thio)-3H-imidazo[4,5-C]pyridine-5-ium]",64 µg/mL,64 µg/mL,32 µg/mL,64 µg/mL,32 µg/mL,64 µg/mL,32 µg/mL,128 µg/mL,–

# — patent US12275734B1, “Pleuromutilin onium salt derivative containing a 3H-imidazo[4,5-c]pyridine side chain, and a preparation method and application thereof” (SHAANXI UNIVERSITY OF SCIENCE AND TECHNOLOGY, priority 2024, dated 2025)
